Results taken from PMC8510097 (Molecules, 2021).
Like-named read-outs stand apart in the source and are kept apart here.

Columns and labels:
[1] = test system: SARS-CoV-2; assay: Antiviral CPE protection assay in VeroE6 cells in the presence of P-glycoprotein inhibitor CP-100356 (CellTiter-Glo); format: cell-based; conditions: 2µM CP-100356, MOI 0.01, 72 hours
[2] = target: T1, SARS-CoV-2 3CLpro (Severe acute respiratory syndrome coronavirus 2, UniProt P0DTD1); assay: SARS-CoV-2 3CLpro inhibition assay, continuous fluorescence with FRET substrate UIVT3; format: biochemical
[3] = test system: SARS-CoV-2 strain JPN/TY/WK-521; assay: Antiviral assay, quantitative VeroE6 cell-based assay with RNA-qPCR
[4] = test system: SARS-CoV 3CL protease; conditions: Figure 1; read-out: IC50 (SARS-CoV 3C); cited from earlier work
[5] = test system: SARS-CoV; conditions: cited from earlier work
[6] = test system: SARS-CoV-2^wk-521; parameters: method as in PMID 32820005, PMID 33510133; conditions: VeroE6 cells; cited from earlier work
[7] = target: T1, SARS-CoV-2 3CLpro; assay: Mass analysis of enzyme-inhibitor complex (LC-MS); conditions: 2 μM protein, 20 μM compound, ten minutes
Method: The enzyme inhibitory activity (IC50 values) of synthetic active esters was assessed using a continuous fluorescence assay and the FRET-based substrate UIVT3 (HiLyteFluor488^TM-[…] -QXL520-NH2 (HPLC > 90%); Anaspec, Fremont, CA, USA) described by us previously. The antiviral activity (EC50 value) of compounds was evaluated using quantitative VeroE6 cell-based assay with RNA-qPCR as described by us recently. […] We presume that the mode of inhibition involves covalent bond formation with catalytic Cys145 as observed in our previous X-ray structural analysis of inhibitor-bound SARS-CoV-2 3CL protease as well as mass spectral analysis. The irreversible enzyme acylation of the NSAIDs-based inhibitor was examined by using […]. Authentic SARS-CoV-2 3CLpro was incubated with inhibitor 8a and then analyzed with untreated enzyme. As expected, we were able to see a signal for enzyme-bound compound 8a on the LC–MS spectrum that corresponds to acylation of 3CL protease with a mass shift of +212 Daltons.
Purified SARS-CoV-2 3CLpro was injected onto a Superdex™ 200 Increase 10/300 GL gel filtration column (GE Healthcare) equilibrated in 20 mM HEPES pH 7.5. […]
Positive ion spectra obtained were analyzed using Agilent MassHunter Qualitative Analysis Software B.06 and the deconvolution spectra were generated using Agilent MassHunter BioConfirm software B.06.

[8] = test system: SARS-CoV-2 strain JPN/TY/WK-521; parameters: method as in PMID 32820005, PMID 33510133; conditions: VeroE6 cells; read-out: antiviral EC50; cited from earlier work
[9] = 10 min pre-incubation of enzyme with compound, read-out: SARS CoV-2 3CLpro IC50
[10] = Severe acute respiratory syndrome coronavirus 2, Vero C1008, 72 h, VeroE6 cells, RNA-qPCR, MOI 0.05, 72 h, read-out: SARS-CoV-2 EC50
[11] = VeroE6 cells, RNA-qPCR, MOI 0.05, 72 h, read-out: SARS-CoV-2 EC50
[12] = values given in nM, read-out: SARS-CoV-2 3CLpro enzyme IC50

| Compound | IC50 [2, 9] [nM] | EC50 [3, 10] [µM] | further results |
| --- | --- | --- | --- |
| Cc1ccc(C(=O)Oc2cncc(Cl)c2)c(O)c1 [Compound 14a, 5-chloropyridin-3-yl 2-hydroxy-4-methylbenzoate] | – | – | antiviral activity in the presence of P-glycoprotein inhibitor CP-100356 [1]: none of these compounds exhibited any significant antiviral activity |
| O=C(Oc1cncc(Cl)c1)c1c(O)cccc1F [C00017] | 108000 | > 100 | – |
| Cc1ccc(C(=O)Oc2cncc(Cl)c2)c(O)c1 [C00010] | 540 | > 100 | – |
| Cc1ccc(O)c(C(=O)Oc2cncc(Cl)c2)c1 [Compound 15a, 5-chloropyridin-3-yl 2-hydroxy-5-methylbenzoate] | – | 24 to 64 | antiviral activity in the presence of P-glycoprotein inhibitor CP-100356 [1]: none of these compounds exhibited any significant antiviral activity |
| O=C(On1nnc2ccccc21)c1ccc2[nH]ccc2c1 [Compound 1] | – | – | IC50 [4]: 200 nM; antiviral activity (in words) [5]: did not show antiviral activity |
| CC(=O)Oc1ccccc1C(=O)Oc1cncc(Cl)c1 [C00001] | 360 | – | – |
| Cc1ccc(O)c(C(=O)Oc2ccc(C)cc2C(=O)Oc2ccc(C)cc2C(=O)Oc2cncc(Cl)c2)c1 [C00014] | 3730 | > 100 | – |
| COc1ccc2c(c1)c(CC(=O)Oc1cncc(Cl)c1)c(C)n2C(=O)c1ccc(Cl)cc1 [C00005] | 5320 | – | EC50 [3, 11]: 30.2 µM |
| Cc1ccc(C(=O)Oc2cc(C)ccc2C(=O)Oc2cncc(Cl)c2)c(O)c1 [C00011] | 1400 | > 100 | – |
| COc1ccc2c(c1)c(CC(=O)Oc1cncc(Cl)c1)c(C)n2C(=O)c1ccc(Cl)cc1 [Compound 11a, 5-chloropyridin-3-yl 2-(1-(4-chlorobenzoyl)-5-methoxy-2-methyl-1H-indol-3-yl)acetate] | – | – | enzyme inhibitory activity (in words) [2]: significant reduction in enzyme activity; EC50 ([3]; Severe acute respiratory syndrome coronavirus 2, Vero C1008, 72 h, read-out: SARS-CoV-2 EC50, VeroE6 cells, RNA-qPCR, MOI 0.05, 72 h): 30 µM; antiviral activity in the presence of P-glycoprotein inhibitor CP-100356 [1]: none of these compounds exhibited any significant antiviral activity |
| CC(C)Cc1ccc(C(C)C(=O)Oc2cncc(Cl)c2)cc1 (stereo not shown) [Compound 10a, 5-chloropyridin-3-yl 2-(4-isobutylphenyl)propanoate] | – | – | IC50 [2, 12]: 810 nM |
| COc1ccc2cc([C@@H](C)C(=O)Oc3cncc(Cl)c3)ccc2c1 [C00003] | 160 | > 100 | – |
| Cc1cccc(O)c1C(=O)Oc1cncc(Cl)c1 [C00015] | 4260 | > 100 | – |
| CC(=O)Nc1cccc(C(=O)Oc2cncc(Cl)c2)c1 [C00018] | 1110 | > 100 | – |
| O=C(Oc1ccccc1C(=O)Oc1cncc(Cl)c1)c1ccccc1O [Compound 12b, 5-chloropyridin-3-yl 2-((2-hydroxybenzoyl)oxy)benzoate] | – | 64 | fold reduction in enzyme activity versus monoester 12a [2]: 5 fold |
| Cc1ccc(O)c(C(=O)Oc2cncc(Cl)c2)c1 [C00012] | 390 | – | EC50 [3, 11]: 46.3 µM |
| CC(=O)Nc1cc(C(=O)Oc2cncc(Cl)c2)ccc1F [C00019] | 1510 | > 100 | – |
| O=C(Oc1cncc(Cl)c1)c1cccc2[nH]ccc12 [Compound 3] | – | – | activity in immunocytochemistry assay (in words) [6]: blocked the infectivity and cytopathic effect |

| Compound | IC50 [2, 9] [nM] | EC50 [3, 10] [µM] | further results |
| --- | --- | --- | --- |
| Cc1cccc(C(=O)Oc2c(C)cccc2C(=O)Oc2cncc(Cl)c2)c1O [C00009] | 4900 | – | EC50 [3, 11]: 23.8 µM |
| CC(=O)Nc1cccc(C(=O)Oc2cncc(Cl)c2)c1 [Compound 18a, 5-chloropyridin-3-yl 3-acetamidobenzoate] | – | – | enzyme inhibitory activity (in words) [2]: low micromolar range |
| Cc1cccc(C(=O)Oc2c(C)cccc2C(=O)Oc2cncc(Cl)c2)c1O [Compound 13b, 5-chloropyridin-3-yl 2-((2-hydroxy-3-methylbenzoyl)oxy)-3-methylbenzoate] | 4900 | 24 | – |
| Cc1cccc(O)c1C(=O)Oc1cccc(C)c1C(=O)Oc1cncc(Cl)c1 [C00016] | 15400 | > 100 | – |
| COc1ccc2cc([C@@H](C)C(=O)Oc3cncc(Cl)c3)ccc2c1 [Compound 9a, 5-chloropyridin-3-yl (R)-2-(6-methoxynaphthalen-2-yl)propanoate] | – | – | fold improvement of enzyme IC50 over the (S)-naproxen ester 8a [2]: over 4 fold; IC50 [2, 12]: 160 nM; antiviral activity in the presence of P-glycoprotein inhibitor CP-100356 [1]: none of these compounds exhibited any significant antiviral activity |
| COc1ccc2cc([C@H](C)C(=O)Oc3cncc(Cl)c3)ccc2c1 [C00002] | 670 | > 100 | – |
| COc1ccc2cc([C@H](C)C(=O)Oc3cncc(Cl)c3)ccc2c1 [Compound 8a, 5-chloropyridin-3-yl (S)-2-(6-methoxynaphthalen-2-yl)propanoate] | – | – | IC50 [2, 12]: 670 nM; mass shift of 3CL protease on acylation by inhibitor [7]: +212 Daltons |
| Cc1ccc(O)c(C(=O)Oc2ccc(C)cc2C(=O)Oc2cncc(Cl)c2)c1 [C00013] | 740 | – | EC50 [3, 11]: 48.3 µM |
| CCC(CC)COC(=O)[C@H](C)N[P@](=O)(OC[C@H]1O[C@@](C#N)(c2ccc3c(N)ncnn23)[C@H](O)[C@@H]1O)Oc1ccccc1 [Compound 5, remdesivir, reference compound] | – | – | EC50 ([3]; Severe acute respiratory syndrome coronavirus 2, Vero C1008, read-out: antiviral EC50 (table footnote a, reference compounds), VeroE6 cells): 2.4 µM |
| CC(=O)Nc1cc(C(=O)Oc2cncc(Cl)c2)ccc1F [Compound 19a, 5-chloropyridin-3-yl 3-acetamido-4-fluorobenzoate] | – | – | enzyme inhibitory activity (in words) [2]: low micromolar range |
| O=C(Oc1ccccc1C(=O)Oc1cncc(Cl)c1)c1ccccc1O [C00007] | 17100 | – | EC50 [3, 11]: 63.7 µM |
| O=C(Oc1cncc(Cl)c1)c1cccc2c1CCN2 [Compound 4] | – | – | EC50 [8]: 15 µM; activity in immunocytochemistry assay (in words) [6]: potent enzyme inhibitory and antiviral activity |
| Cc1cccc(C(=O)Oc2cncc(Cl)c2)c1O [C00008] | 650 | > 100 | – |
| O=C(Oc1cncc(Cl)c1)c1ccccc1O [Compound 12a, 5-chloropyridin-3-yl 2-hydroxybenzoate] | 3470 | – | – |
| Cc1cccc(C(=O)Oc2cncc(Cl)c2)c1O [Compound 13a, 5-chloropyridin-3-yl 2-hydroxy-3-methylbenzoate] | – | – | IC50 [2, 12]: 650 nM |
| O=C(Oc1cncc(Cl)c1)c1cccs1 [Compound 2] | – | – | IC50 [4]: 500 nM; antiviral activity (in words) [5]: did not show antiviral activity |
| CC(C)Cc1ccc(C(C)C(=O)Oc2cncc(Cl)c2)cc1 (stereo not shown) [C00004] | 810 | > 100 | – |
| O=C(Oc1cncc(Cl)c1)c1ccccc1O [C00006] | – | > 100 | – |
